MIC data for one molecule are collected here from US20250328351A1, “CARBONIC ANHYDRASE INHIBITORS AND ANTIBIOTICS AGAINST MULTIDRUG RESISTANT BACTERIA” (Purdue Research Foundation, priority 2018, published 2025).

Common to all, as to format: cell-based
Assay [1] deals with Staphylococcus epidermidis NRS 101. In words: MIC, broth microdilution (CLSI). The following applies: NRS101, Table 2, TSB. Here is the method:
(§1) The minimum inhibitory concentrations (MICs) of the compounds and control drugs were determined using the broth microdilution method, according to guidelines outlined by the Clinical and Laboratory Standards Institute (CLSI)^1. Staphylococci strains were grown aerobically overnight on tryptone soya agar plates at 37° C., afterwards a bacterial solution equivalent to 0.5 McFarland standard was prepared and diluted in tryptone soy broth (TSB) to achieve a bacterial concentration of about 5×10^5 CFU/mL and seeded in 96-well well plates. Compounds and control drugs were added in the first row of the 96-well plates and serially diluted along the plates. Plates were then incubated aerobically at 37° C. for 18-20 hours. MICs reported in Table 2 are the minimum concentration of the compounds/control drugs that could inhibit completely the visual growth of the bacteria.

Assay [2] has as its system MRSA NRS 384 (MRSA USA300). In words: MIC, broth microdilution (CLSI). The following applies: Staphylococcus aureus; Table 2; TSB. On the procedure:
as §1
In general terms: Dilution methods test growth across graded concentrations, often in twofold steps.

The test system of assay [3] is Mutant-8 of Enterococcus fecalis NR 31975. Briefly: microbe, parasite or virus in culture.
Assay [4] relates to Enterococcus faecium Patient #2-1 - NR-31909. Briefly: MIC, broth microdilution (CLSI). The note with it: Enterococcus faecium, TSB, read-out: MIC.
In assay [5] the test system is Enterococcus fecalis Strain SF 24397 NR31970. In words: MIC, broth microdilution (CLSI). The following applies: Enterococcus, TSB, read-out: MIC.
In assay [6] the test system is Enterococcus faecium E417 - HM-965. In words: MIC, broth microdilution (CLSI). The following applies: Enterococcus faecium, E417HM965, Table 1; TSB; read-out: MIC.

The structures appear in SMILES notation. ≈ marks a conversion by molar mass, not a printed value. Where two headings read alike, the source gives them in different places.

Consider `CC(C)=CC(=O)Nc1nnc(S(N)(=O)=O)s1` [CAI0016, 3-Methyl-N-(5-sulfamoyl-1,3,4-thiadiazol-2-yl)but-2-enamide], for which the MIC in assay [1] is over 64 µg/mL; in assay [2], over 64 µg/mL; in assay [3] it was 4 µg/mL (≈ 15.2 µM); in assay [4] (Table 1) it was 0.5 µg/mL (≈ 1.91 µM); in assay [4] (Table 7) it was 0.25 µg/mL (≈ 0.953 µM); in assay [5] (Table 1) it was 0.5 µg/mL (≈ 1.91 µM). Besides, the MIC in assay [5] (Table 7) and in assay [6] was 0.25 µg/mL (≈ 0.953 µM) throughout.
